Source: paper PMC3166231 (Inorganic chemistry, 2010)
Counter-ions that a name gives are not always drawn. Like-named read-outs stand apart in the source and are kept apart here. Marks after values point to notes of the source that are not given here.

Legend:
[1] = pH = 7.4, [Fe3+] = 1.0 × 10^−6 mol dm^−3, [L] = 1.0 × 10^−5 mol dm^−3, cited from earlier work
Literature Fe = format: binding; details: refs [19], [21]; for Δ1–2: difference K1 − K2 of cited stepwise constants; for Δ2–3: difference K2 − K3 of cited stepwise constants
[2] = cited from earlier work; for pFe: bidentate donor group, ref [17]–[20]; for K2 (proton independent stepwise formation constant): second ligand; for K3 (proton independent stepwise formation constant): third ligand
[3] = ref [14]; cited from earlier work

Cn1cccc(O)c1=O [1-methyl-3-hydroxypyridin-2-one]
pFe ([1]; ref [63]): 16 ^b

O=c1[nH]cccc1O [3,2-HOPO]
Δ1–2 (Literature Fe): 1.71
Δ2–3 (Literature Fe): 1.76
pFe [2]: 16.26
K1 (proton independent stepwise formation constant) ([2]; iron complex, first ligand, ref [19], [21]): 11.48
K2 (proton independent stepwise formation constant) ([2]; iron complex, ref [19], [21]): 9.77
K3 (proton independent stepwise formation constant) ([2]; iron complex, ref [19], [21]): 8.01

Oc1cccnc1O [3-hydroxy-2-pyridinone]
pKa of the 3-hydroxy-2-pyridinone donor group alone [3]: 8.66

O=C(O)c1ccc(-n2nc(-c3ccccc3O)nc2-c2ccccc2O)cc1 [Deferasirox, deferasirox]
pFe ([1]; ref [65]): 23.5 ^d

Cc1c(O)c(=O)ccn1C [Deferiprone, 1,2-dimethyl-3-hydroxy-4-pyridinone]
pFe ([1]; ref [64]): 19.4 ^c

CC(=O)N(O)CCCCCNC(=O)CCC(=O)N(O)CCCCCNC(=O)CCC(=O)N(O)CCCCCN [Deferrioxamine B, desferrioxamine B mesylate]
pFe ([1]; ref [67]): 26.6 ^h

Oc1ccccc1O [catechol]
Δ1–2 (Literature Fe): 4.9
Δ2–3 (Literature Fe): 6.1
pFe [2]: 15.1
K2 (proton independent stepwise formation constant) ([2]; iron complex, ref [19], [21]): 15.5
K3 (proton independent stepwise formation constant) ([2]; iron complex, ref [19], [21]): 9.4

Transferrin: iron transport protein used as pFe comparison
pFe ([1]; ref [66]): 23.6 ^e
